Measured values reported in patent publication US9630977B2, “Cephalosporin derivatives and pharmaceutical compositions thereof” (Legochem Biosciences, Inc., priority 2011, dated 2017).
Converted amounts (≈) assume the structure as drawn. Like-named read-outs stand apart in the source and are kept apart here.

Assays:
[1] = system: 19 clinical isolates; experiment: In vitro antibacterial activity test, panel of 19 clinical isolates as a whole; type: cell-based; conditions: effect of a siderophore group, Table 1
Experimental: To evaluate antibacterial activity of each of the compounds of Examples 1 to 68, in vitro antibacterial activity test was performed.
(§1) The in vitro antibacterial activity was evaluated by measuring MIC90 (ug/mL) of each of the compounds of Examples 1 to 68, which is defined as the lowest concentration of an antibiotic that will inhibit the visible growth of 90% of microorganisms after incubation as compared with a control group to which the antibiotic is not treated. MIC90 values were measured by the broth microdilution method developed by the Clinical and Laboratory Standards Institute (CLSI) (see CLSI M7-A5, Methods for Dilution Antimicrobial Susceptibility Test for Bacteria that Grow Aerobically-Fifth Edition (2000): CLSI, Villanova, Pa.).
In vitro antibacterial activity was measured with respect to the following 19 clinical isolates: M. catarrhalis; P. aeruginosa (5 strains); K. pneumoniae (6 strains); A. baumannii (3 strains); E. coli (2 strains); A. calcoaceticus; and E. cloacae.
(§2) Test compounds each (the cephalosporin derivative compounds prepared in Examples 1 to 68) were dissolved in DMSO at the concentration of 10,240 ug/mL, were diluted by two fold with DMSO, and then were diluted by twenty fold with sterilized distilled water. The final concentration in the antibacterial activity test was in the range of […] to 128 ug/mL, and the final concentration of DMSO used as an adjuvant was 2.5% (V/V).

[2] = system: K. pneumoniae (38 clinical isolates); experiment: Antibacterial activity on representative drug-resistance bacteria: number of clinical isolates per MIC value; type: cell-based; conditions: K. pneumomiae (N = 38)
Experimental: as §1, §2

[3] = system: A. baumannii (6 clinical isolates); experiment: as above; type: cell-based; conditions: A. baumanni (N = 6)
Experimental: as §1, §2

[4] = system: P. aeruginosa (16 clinical isolates); experiment: as above; type: cell-based; conditions: P. aeruginosa (N = 16)
Experimental: as §1, §2

[5] = system: A. calcoaceticus ATCC15473; experiment: In vitro antibacterial activity test (broth microdilution); type: cell-based; conditions: A. calcoaceticus ATCC15473
Outline: (§3)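 MIC90 was determined by CLSI broth microdilution against clinical isolates, as the lowest concentration inhibiting visible growth of 90% of organisms relative to untreated control. Final compound concentrations spanned 0.0626–128 ug/mL with 2.5% (V/V) DMSO.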

[6] = system: K. pneumoniae β13; experiment: as above; type: cell-based; conditions: K. pneumoniae β13
Outline: as §3

[7] = system: P. aeruginosa 40; experiment: as above; type: cell-based
Outline: as §3

[8] = system: P. aeruginosa 37; experiment: as above; type: cell-based
Outline: as §3

[9] = system: K. pneumoniae β14; experiment: as above; type: cell-based
Outline: as §3

[10] = system: K. pneumoniae β10; experiment: as above; type: cell-based; conditions: K. pneumoniae β10
Outline: as §3

[11] = system: P. aeruginosa 43; experiment: as above; type: cell-based; conditions: P. aeruginosa 43
Outline: as §3

[12] = system: E. coli AG100; experiment: as above; type: cell-based
Outline: as §3

[13] = system: M. catarrhalis 2524; experiment: as above; type: cell-based; conditions: M. catarrhalis 2524
Outline: as §3

[14] = system: P. aeruginosa 1912E; experiment: as above; type: cell-based
Outline: as §3

[15] = system: A. baumannii 49; experiment: as above; type: cell-based; conditions: A. baumannii 49
Outline: as §3

[16] = system: E. coli β4; experiment: as above; type: cell-based
Outline: as §3

[17] = system: A. baumannii 52; experiment: as above; type: cell-based; conditions: A. baumannii 52
Outline: as §3

[18] = system: K. pneumoniae β11; experiment: as above; type: cell-based; conditions: K. pneumoniae β11
Outline: as §3

[19] = system: K. pneumoniae β9; experiment: as above; type: cell-based; conditions: K. pneumoniae β9
Outline: as §3

[20] = system: P. aeruginosa 6065Y; experiment: as above; type: cell-based
Outline: as §3

[21] = system: A. baumannii 46; experiment: as above; type: cell-based; conditions: A. baumannii 46
Outline: as §3

[22] = system: K. pneumoniae 2011E; experiment: as above; type: cell-based; conditions: K. pneumoniae 2011E
Outline: as §3

[23] = system: E. cloacae β19; experiment: as above; type: cell-based
Outline: as §3

[24] = system: P. aeruginosa R1023; experiment: In vivo efficacy, whole-body infected mouse model, Ceftazidime-resistant bacteria;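 for Survival rate: each column one dose of 5 10 20 or 40 mg/kg given sc at 1 h and 4 h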; parameters: species or system ICR mouse; conditions: for Survival rate: subcutaneous 1 h and 4 h after infection, P. aeruginosa R1023 (2 × 10^6 CFU/mouse), four days
Experimental: (§4) Pharmaceutical efficacy of the cephalosporin derivative compounds according to the present invention was evaluated in a whole-body infected mouse model. Tables 3 and 4 show survival rate and ED50 values for the two compounds with excellent antibacterial activity with regard to an infected mouse by a drug-sensitive bacteria and a drug-resistant bacteria.
(§5) Test animals: 3 week old male ICR mouse, weight 18˜22 g; 5 mice/group.
(§6) Lab conditions: Temperature of 23±2° C.; humidity of 55±20%.
(§7) Administration method: Inducing whole-body infection by bacterial solution followed by subcutaneous injection (0.2 mL) after 1 hour and 4 hours.
(§8) Test method: Cultured bacteria were diluted with 0.9% NaCl to prepare a bacterial solution having a concentration that is 5 to 10 times of […]. 0.5 mL of bacterial solution was injected through abdominal cavity to induce whole-body infection. Test compounds were administered in four different amounts, which were designed considering in vitro MIC values of the test bacteria. After 1 hour and 4 hours, the four different amounts of the test compounds were subcutaneously administered. Survival rates were measured for four days and ED50 values were calculated according to the Probit method.

[25] = system: P. aeruginosa 1912E; experiment: In vivo efficacy, whole-body infected mouse model, Ceftazidime-sensitive bacteria; parameters: species or system ICR mouse; conditions: P. aeruginosa 1912E (2 × 10^6CFU/mouse); for Survival rate: four days
Experimental: as §4, §5, §6, §7, §8

[26] = Klebsiella pneumoniae, read-out: MIC90
[27] = Pseudomonas aeruginosa, read-out: MIC90
[28] = Acinetobacter baumannii, read-out: MIC90

Q: Which results are given for `CC(C)(O/N=C(\C(=O)N[C@@H]1C(=O)N2C(C(=O)[O-])=C(/C=C/C[n+]3cnc(N)c(NCCNC(=O)c4cc(=O)c(O)cn4O)c3)CSC12)c1csc(N)n1)C(=O)O` (stereo partly shown) [Compound 11]?
A: antibacterial activity (in words) [1]: significantly improved; number of clinical isolates that showed the respective MIC value ([2]; MIC 0.5 ug/mL): 1; number of clinical isolates that showed the respective MIC value ([2]; MIC 2 ug/mL): 1; number of clinical isolates that showed the respective MIC value ([2]; MIC 8 ug/mL): 1; number of clinical isolates that showed the respective MIC value ([2]; MIC >16 ug/mL): 35; number of clinical isolates that showed the respective MIC value ([3]; MIC 2 ug/mL): 1; number of clinical isolates that showed the respective MIC value ([3]; MIC >16 ug/mL): 5; number of clinical isolates that showed the respective MIC value ([4]; MIC 0.125 ug/mL): 1; number of clinical isolates that showed the respective MIC value ([4]; MIC 0.5 ug/mL): 3; number of clinical isolates that showed the respective MIC value ([4]; MIC 1 ug/mL): 2; number of clinical isolates that showed the respective MIC value ([4]; MIC 2 ug/mL): 2; number of clinical isolates that showed the respective MIC value ([4]; MIC 4 ug/mL): 3; number of clinical isolates that showed the respective MIC value ([4]; MIC 8 ug/mL): 2; number of clinical isolates that showed the respective MIC value ([4]; MIC 16 ug/mL): 1; number of clinical isolates that showed the respective MIC value ([4]; MIC >16 ug/mL): 2; MIC90 [5]: 1 µg/mL (≈ 1.25 µM); MIC90 [6]: <0.0625 µg/mL; MIC90 ([7]; P. aeruginosa 40): 0.5 µg/mL (≈ 0.625 µM); MIC90 ([8]; P. aeruginosa 37): 1 µg/mL (≈ 1.25 µM); MIC90 [9]: 8 µg/mL (≈ 10 µM); MIC90 [10]: <0.0625 µg/mL; MIC90 [11]: 1 µg/mL (≈ 1.25 µM); MIC90 ([12]; E. coli AG100): 0.125 µg/mL (≈ 0.156 µM); MIC90 [13]: 0.25 µg/mL (≈ 0.313 µM); MIC90 [14]: 1 µg/mL (≈ 1.25 µM); MIC90 [15]: >128 µg/mL; MIC90 [16]: 0.125 µg/mL (≈ 0.156 µM); MIC90 [17]: >128 µg/mL; MIC90 [18]: >128 µg/mL; MIC90 [19]: <0.0625 µg/mL; MIC90 [20]: 4 µg/mL (≈ 5 µM); MIC90 [21]: 4 µg/mL (≈ 5 µM); MIC90 [22]: 0.5 µg/mL (≈ 0.625 µM); MIC90 [23]: 64 µg/mL (≈ 80 µM)

Q: Which ED50 ([24]; Pseudomonas aeruginosa, sc, Probit method, subcutaneous, mouse infected by Ceftazidime-resistant P. aeruginosa R1023) does the source give for `CC(C)(O/N=C(\C(=O)N[C@@H]1C(=O)N2C(C(=O)[O-])=C(C[n+]3ccccc3)CS[C@H]12)c1csc(N)n1)C(=O)O` [Ceftazidime, reference compound] here?
A: Its ED50 is 640 mg/kg.

Q: What about the Survival rate ([24]; administered amount 5 mg/kg) of the same molecule?
A: The Survival rate was 0%.

Q: And the Survival rate ([24]; administered amount 10 mg/kg)?
A: The Survival rate was 20%.

Q: And the Survival rate ([24]; administered amount 20 mg/kg)?
A: The Survival rate was 20%.

Q: What about the Survival rate ([24]; administered amount 40 mg/kg) of the same molecule?
A: The Survival rate was 20%.

Q: And the Survival rate ([25]; 2.5 mg/kg subcutaneous after 1 hour and 4 hours)?
A: The Survival rate was 40%.

Q: What about the Survival rate ([25]; 5 mg/kg subcutaneous after 1 hour and 4 hours) of the same molecule?
A: The Survival rate was 80%.

Q: And the Survival rate ([25]; 10 mg/kg subcutaneous after 1 hour and 4 hours)?
A: Its Survival rate is 100%.

Q: And the Survival rate ([25]; 20 mg/kg subcutaneous after 1 hour and 4 hours)?
A: Its Survival rate is 100%.

Q: And the ED50 ([25]; Pseudomonas aeruginosa, sc, subcutaneous, Probit method)?
A: Its ED50 is 2.5 mg/kg.

Q: And the “number of clinical isolates that showed the respective MIC value” (“number” below) ([2]; MIC 0.5 ug/mL)?
A: Its value is 2.

Q: What about the “number” value ([2]; MIC 4 ug/mL) of the same molecule?
A: The value was 1.

Q: What about the “number” value ([2]; MIC 16 ug/mL) of the same molecule?
A: Its value is 3.

Q: What about the “number” value ([2]; MIC >16 ug/mL) of the same molecule?
A: Its value is 32.

Q: What about the “number” value ([3]; MIC >16 ug/mL) of the same molecule?
A: Its value is 6.

Q: What about the “number” value ([4]; MIC 2 ug/mL) of the same molecule?
A: Its value is 1.

Q: And the “number” value ([4]; MIC 4 ug/mL)?
A: Its value is 2.

Q: And the “number” value ([4]; MIC 8 ug/mL)?
A: Its value is 1.

Q: And the “number” value ([4]; MIC 16 ug/mL)?
A: Its value is 1.

Q: And the “number” value ([4]; MIC >16 ug/mL)?
A: Its value is 11.

Q: And the MIC90 ([5]; Acinetobacter calcoaceticus, read-out: MIC90)?
A: Its MIC90 is 1 µg/mL (≈ 1.83 µM).

Q: What about the MIC90 [6, 26] of the same molecule?
A: Its MIC90 is 32 µg/mL (≈ 58.5 µM).

Q: And the MIC90 ([7]; Pseudomonas aeruginosa, 40, P. aeruginosa 40, read-out: MIC90)?
A: Its MIC90 is 4 µg/mL (≈ 7.32 µM).

Q: What about the MIC90 ([8]; Pseudomonas aeruginosa, 37, P. aeruginosa 37, read-out: MIC90) of the same molecule?
A: The MIC90 was 64 µg/mL (≈ 117 µM).

Q: What about the MIC90 [9, 26] of the same molecule?
A: The MIC90 was 64 µg/mL (≈ 117 µM).

Q: And the MIC90 [10, 26]?
A: Its MIC90 is 32 µg/mL (≈ 58.5 µM).

Q: What about the MIC90 [11, 27] of the same molecule?
A: Its MIC90 is 16 µg/mL (≈ 29.3 µM).

Q: And the MIC90 ([12]; Escherichia coli, AG100, E. coli AG100, read-out: MIC90)?
A: Its MIC90 is 0.5 µg/mL (≈ 0.915 µM).

Q: And the MIC90 ([13]; Moraxella catarrhalis, read-out: MIC90)?
A: Its MIC90 is under 0.0625 µg/mL.

Q: What about the MIC90 ([14]; Pseudomonas aeruginosa, 1912E, read-out: MIC90) of the same molecule?
A: Its MIC90 is 1 µg/mL (≈ 1.83 µM).

Q: And the MIC90 [15, 28]?
A: The MIC90 was over 64 µg/mL.

Q: What about the MIC90 ([16]; Escherichia coli, read-out: MIC90) of the same molecule?
A: The MIC90 was 8 µg/mL (≈ 14.6 µM).

Q: What about the MIC90 [17, 28] of the same molecule?
A: The MIC90 was over 64 µg/mL.

Q: And the MIC90 [18, 26]?
A: The MIC90 was 64 µg/mL (≈ 117 µM).

Q: And the MIC90 [19, 26]?
A: The MIC90 was 16 µg/mL (≈ 29.3 µM).

Q: What about the MIC90 [20, 27] of the same molecule?
A: The MIC90 was 32 µg/mL (≈ 58.5 µM).

Q: And the MIC90 [21, 28]?
A: The MIC90 was 4 µg/mL (≈ 7.32 µM).

Q: And the MIC90 ([22]; Klebsiella pneumoniae, 2011E, read-out: MIC90)?
A: The MIC90 was 1 µg/mL (≈ 1.83 µM).

Q: What about the MIC90 ([23]; Enterobacter cloacae, read-out: MIC90) of the same molecule?
A: The MIC90 was 32 µg/mL (≈ 58.5 µM).
